Source: the NIST ThermoML archive (doi:10.1021/je025582+)
± gives the expanded uncertainty stated by the source.

Details: Gas

FC(C(F)(F)F)C(F)(F)F [1,1,1,2,3,3,3-heptafluoropropane]
mass density (318.15 K, 122.2 kPa): 8.07 ± 0.1 kg/m3
mass density (318.15 K, 167.7 kPa): 11.21 ± 0.11 kg/m3
mass density (318.15 K, 230.1 kPa): 15.57 ± 0.11 kg/m3
mass density (318.15 K, 312 kPa): 21.61 ± 0.12 kg/m3
mass density (318.15 K, 421 kPa): 30.01 ± 0.13 kg/m3
mass density (318.15 K, 561.3 kPa): 41.67 ± 0.15 kg/m3
mass density (318.15 K, 734.2 kPa): 57.85 ± 0.17 kg/m3
mass density (321.15 K, 123.2 kPa): 8.06 ± 0.1 kg/m3
mass density (321.15 K, 169.3 kPa): 11.2 ± 0.1 kg/m3
mass density (321.15 K, 232.2 kPa): 15.54 ± 0.11 kg/m3
mass density (321.15 K, 315.4 kPa): 21.58 ± 0.12 kg/m3
mass density (321.15 K, 425.5 kPa): 29.97 ± 0.13 kg/m3
mass density (321.15 K, 568 kPa): 41.61 ± 0.15 kg/m3
mass density (321.15 K, 744.1 kPa): 57.77 ± 0.16 kg/m3
mass density (324.15 K, 124.4 kPa): 8.05 ± 0.1 kg/m3
mass density (324.15 K, 170.9 kPa): 11.18 ± 0.1 kg/m3
mass density (324.15 K, 234.2 kPa): 15.53 ± 0.11 kg/m3
mass density (324.15 K, 318.6 kPa): 21.56 ± 0.12 kg/m3
mass density (324.15 K, 430.2 kPa): 29.93 ± 0.13 kg/m3
mass density (324.15 K, 574.9 kPa): 41.56 ± 0.14 kg/m3
mass density (324.15 K, 754 kPa): 57.71 ± 0.16 kg/m3
mass density (327.15 K, 125.7 kPa): 8.04 ± 0.1 kg/m3
mass density (327.15 K, 172.6 kPa): 11.17 ± 0.1 kg/m3
mass density (327.15 K, 236.2 kPa): 15.51 ± 0.11 kg/m3
mass density (327.15 K, 321.9 kPa): 21.53 ± 0.11 kg/m3
mass density (327.15 K, 434.8 kPa): 29.9 ± 0.12 kg/m3
mass density (327.15 K, 581.5 kPa): 41.52 ± 0.14 kg/m3
mass density (327.15 K, 763.9 kPa): 57.65 ± 0.17 kg/m3
mass density (327.15 K, 982.1 kPa): 80.04 ± 0.2 kg/m3
mass density (330.15 K, 126.8 kPa): 8.04 ± 0.1 kg/m3
mass density (330.15 K, 132 kPa): 8.39 ± 0.1 kg/m3
mass density (330.15 K, 174.3 kPa): 11.16 ± 0.1 kg/m3
mass density (330.15 K, 181.5 kPa): 11.64 ± 0.1 kg/m3
mass density (330.15 K, 238.5 kPa): 15.5 ± 0.11 kg/m3
mass density (330.15 K, 248.3 kPa): 16.17 ± 0.11 kg/m3
mass density (330.15 K, 325.2 kPa): 21.51 ± 0.11 kg/m3
mass density (330.15 K, 338.6 kPa): 22.45 ± 0.11 kg/m3
mass density (330.15 K, 439.5 kPa): 29.87 ± 0.12 kg/m3
mass density (330.15 K, 457.7 kPa): 31.17 ± 0.12 kg/m3
mass density (330.15 K, 588.3 kPa): 41.48 ± 0.13 kg/m3
mass density (330.15 K, 611.2 kPa): 43.28 ± 0.14 kg/m3
mass density (330.15 K, 774.3 kPa): 57.59 ± 0.15 kg/m3
mass density (330.15 K, 803.6 kPa): 60.09 ± 0.16 kg/m3
mass density (330.15 K, 998.1 kPa): 79.97 ± 0.2 kg/m3
mass density (333.15 K, 128 kPa): 8.03 ± 0.1 kg/m3
mass density (333.15 K, 175.9 kPa): 11.15 ± 0.1 kg/m3
mass density (333.15 K, 240.7 kPa): 15.48 ± 0.1 kg/m3
mass density (333.15 K, 328.6 kPa): 21.5 ± 0.11 kg/m3
mass density (333.15 K, 444.3 kPa): 29.85 ± 0.12 kg/m3
mass density (333.15 K, 595.3 kPa): 41.45 ± 0.14 kg/m3
mass density (333.15 K, 784.6 kPa): 57.55 ± 0.16 kg/m3
mass density (333.15 K, 1013.2 kPa): 79.91 ± 0.19 kg/m3
mass density (336.15 K, 129 kPa): 8.03 ± 0.1 kg/m3
mass density (336.15 K, 177.7 kPa): 11.14 ± 0.1 kg/m3
mass density (336.15 K, 243.4 kPa): 15.47 ± 0.1 kg/m3
mass density (336.15 K, 331.9 kPa): 21.49 ± 0.11 kg/m3
mass density (336.15 K, 449.1 kPa): 29.83 ± 0.12 kg/m3
mass density (336.15 K, 602.5 kPa): 41.42 ± 0.14 kg/m3
mass density (336.15 K, 795.1 kPa): 57.52 ± 0.16 kg/m3
mass density (336.15 K, 1029.1 kPa): 79.86 ± 0.19 kg/m3
mass density (339.15 K, 130.1 kPa): 8.02 ± 0.1 kg/m3
mass density (339.15 K, 179.3 kPa): 11.14 ± 0.1 kg/m3
mass density (339.15 K, 245.7 kPa): 15.47 ± 0.1 kg/m3
mass density (339.15 K, 334.9 kPa): 21.48 ± 0.11 kg/m3
mass density (339.15 K, 454.4 kPa): 29.82 ± 0.12 kg/m3
mass density (339.15 K, 609.6 kPa): 41.4 ± 0.13 kg/m3
mass density (339.15 K, 804.6 kPa): 57.49 ± 0.16 kg/m3
mass density (339.15 K, 1044.6 kPa): 79.83 ± 0.2 kg/m3
mass density (339.15 K, 1310.5 kPa): 110.84 ± 0.24 kg/m3
mass density (342.15 K, 131.3 kPa): 8.02 ± 0.09 kg/m3
mass density (342.15 K, 181.1 kPa): 11.14 ± 0.1 kg/m3
mass density (342.15 K, 248.2 kPa): 15.46 ± 0.1 kg/m3
mass density (342.15 K, 338.6 kPa): 21.47 ± 0.11 kg/m3
mass density (342.15 K, 459.3 kPa): 29.81 ± 0.12 kg/m3
mass density (342.15 K, 616.9 kPa): 41.39 ± 0.13 kg/m3
mass density (342.15 K, 815 kPa): 57.47 ± 0.16 kg/m3
mass density (342.15 K, 1059.6 kPa): 79.8 ± 0.2 kg/m3
mass density (342.15 K, 1333.9 kPa): 110.8 ± 0.24 kg/m3
mass density (345.15 K, 132.5 kPa): 8.02 ± 0.09 kg/m3
mass density (345.15 K, 182.4 kPa): 11.13 ± 0.1 kg/m3
mass density (345.15 K, 250.2 kPa): 15.46 ± 0.1 kg/m3
mass density (345.15 K, 341.9 kPa): 21.47 ± 0.11 kg/m3
mass density (345.15 K, 464 kPa): 29.81 ± 0.12 kg/m3
mass density (345.15 K, 624.2 kPa): 41.39 ± 0.13 kg/m3
mass density (345.15 K, 826.2 kPa): 57.46 ± 0.15 kg/m3
mass density (345.15 K, 1074.6 kPa): 79.79 ± 0.19 kg/m3
mass density (345.15 K, 1358 kPa): 110.79 ± 0.23 kg/m3
mass density (380.15 K, 269.4 kPa): 14.93 ± 0.09 kg/m3
mass density (380.15 K, 369.5 kPa): 20.73 ± 0.09 kg/m3
mass density (380.15 K, 503.4 kPa): 28.78 ± 0.1 kg/m3
mass density (380.15 K, 683 kPa): 39.96 ± 0.11 kg/m3
mass density (380.15 K, 918.3 kPa): 55.48 ± 0.13 kg/m3
mass density (380.15 K, 1215.9 kPa): 77.04 ± 0.16 kg/m3
mass density (380.15 K, 1582.9 kPa): 106.97 ± 0.21 kg/m3
mass density (380.15 K, 2004.6 kPa): 148.52 ± 0.28 kg/m3
mass density (380.15 K, 2446.1 kPa): 206.22 ± 0.4 kg/m3
mass density (380.15 K, 2832.9 kPa): 286.34 ± 0.53 kg/m3
